{"source": "patent US10953015B2", "about": "“Use of adenosine receptor signaling to regulate P-gp function” (CORNELL UNIVERSITY, priority 2016, dated 2021)", "key": {"[1]": {"conditions": "cited from earlier work"}, "[2]": {"system": "P-gp", "test": "P-gp expression in HEK293T kidney cell line (IFA MFI, western blot)", "assay_type": "cell-based, human", "conditions": "Lexiscan® 1, 0.5, 0.1 μM, 15 minutes", "method": "FIGS. 20A and 20B illustrate that Lexiscan® downregulates P-gp expression in the kidney cell line HEK293T while treatment with antagonist SCH58261 blocks Lexiscan®'s effects. […] HEK293T cells were grown to confluency on coverslips, and treated with varying concentrations of Lexiscan® (1, 0.5, and 0.1 μM) for 15 minutes. Cells were permeabilized and then stained with an antibody to P-gp (C219) and visualized under a fluorescent microscope. FIG. 20B is a graph of the MFI of P-gp in FIG. 20A. DMSO vs. Lexiscan® (“Lex”), *=P<0.05, Lexiscan® (“Lex”)+SCH58261 (“SCH”), ****P<0.0001.\nHEK293T transformed kidney cells were treated with varying concentration of Lexiscan® (1, 0.5, 0.1 μM). Cells were lysed with lysis buffer ([…]), containing protease inhibitor cocktail. Samples were loaded on 7% SDS PAGE at 100V for 1 hour and transferred to nitrocellulose paper. The intensity of bands were analyzed by densitometry and plotted as a graph. Statistics: two-tailed student's t test: *=P<0.5, ****=P<0.0001.\nApplicants investigated whether A2A AR agonists could modulate P-gp expression in the HEK293T human kidney cell line. HEK293T cells were grown to confluency on coverslips and treated with varying concentrations of Lexiscan, Lexiscan® plus the A2A antagonist (SCH58261), or vehicle control for 15 minutes. Cells were then permeabilized, stained with an antibody to P-gp, and visualized under a fluorescent microscope (FIG. 20A). The mean fluorescence intensity (MFI) of P-gp was quantified and graphed in FIG. 20B.\nHEK293T cells were treated with various concentrations of Lexiscan, lysed, loaded onto an SDS-PAGE gel, transferred to a nitrocellulose membrane, and used for western blot analysis."}, "[3]": {"molecular_target": "T1, P-gp (Mus musculus, UniProt P21447)", "T1 construct": "down-modulation of P-gp expression and function in brain vascular endothelial cells in WT mice; from tissue; host or cells: brain of WT mice", "T1 sequence (P21447 whole entry)": "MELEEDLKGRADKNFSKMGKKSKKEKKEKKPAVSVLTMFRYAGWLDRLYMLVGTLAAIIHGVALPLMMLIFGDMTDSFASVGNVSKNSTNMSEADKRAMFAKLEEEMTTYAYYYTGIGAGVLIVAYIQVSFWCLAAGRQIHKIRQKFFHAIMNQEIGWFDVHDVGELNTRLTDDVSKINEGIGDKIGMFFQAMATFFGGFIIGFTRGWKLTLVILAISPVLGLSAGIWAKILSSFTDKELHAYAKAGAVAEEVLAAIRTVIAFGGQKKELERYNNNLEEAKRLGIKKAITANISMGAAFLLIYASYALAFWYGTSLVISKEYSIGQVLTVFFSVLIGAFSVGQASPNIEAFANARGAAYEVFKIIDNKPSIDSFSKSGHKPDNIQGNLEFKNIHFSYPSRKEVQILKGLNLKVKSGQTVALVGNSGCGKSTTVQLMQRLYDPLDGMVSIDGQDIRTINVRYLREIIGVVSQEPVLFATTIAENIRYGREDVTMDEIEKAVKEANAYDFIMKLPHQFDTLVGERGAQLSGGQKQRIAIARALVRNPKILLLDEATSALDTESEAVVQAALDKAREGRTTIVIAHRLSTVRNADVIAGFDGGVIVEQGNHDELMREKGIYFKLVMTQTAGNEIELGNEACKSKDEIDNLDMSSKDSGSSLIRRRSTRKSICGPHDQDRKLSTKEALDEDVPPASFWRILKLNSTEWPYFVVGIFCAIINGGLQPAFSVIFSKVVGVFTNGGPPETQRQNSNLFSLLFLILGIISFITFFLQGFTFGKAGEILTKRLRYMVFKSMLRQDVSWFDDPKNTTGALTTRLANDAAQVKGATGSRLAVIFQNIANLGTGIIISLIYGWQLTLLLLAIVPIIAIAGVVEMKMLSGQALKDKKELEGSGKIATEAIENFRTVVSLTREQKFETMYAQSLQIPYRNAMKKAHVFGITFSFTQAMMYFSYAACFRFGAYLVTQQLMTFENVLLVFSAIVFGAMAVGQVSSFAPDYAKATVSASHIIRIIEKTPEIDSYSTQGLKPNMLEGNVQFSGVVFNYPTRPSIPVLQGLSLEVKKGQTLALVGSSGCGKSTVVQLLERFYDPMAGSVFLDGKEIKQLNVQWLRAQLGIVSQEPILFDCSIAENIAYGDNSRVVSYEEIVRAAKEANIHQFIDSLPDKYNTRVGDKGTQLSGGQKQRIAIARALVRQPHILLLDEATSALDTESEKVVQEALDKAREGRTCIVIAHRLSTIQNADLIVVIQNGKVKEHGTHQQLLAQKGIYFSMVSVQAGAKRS", "test": "Epirubicin brain accumulation assay", "assay_type": "in vivo", "conditions": "mice; 10 mg/kg epirubicin i.v. with 0.05 mg/kg Lexiscan® or 50 mg/kg PSC833 for 15 minutes", "method": "FIG. 12A is a fluorescence microscopy image showing immunofluorescence images of brains from Lexiscan®-treated mice of WT brain at 15 and 30 minutes after Lexiscan® treatment. Frozen brain sections were stained with GLUT1 (red), or P-gp (green) and counterstained with DAPI (blue). FIG. 12B is a fluorescence microscopy image showing an enlarged image of FIG. 12A. FIG. 12C is a graph summarizing the experimental results of a brain epirubicin accumulation assay in the Lexiscan®- and vehicle-treated (control) mice. Briefly, 10 mg/kg of epirubicin was injected intravenously with or without 0.05 mg/kg of Lexiscan®. Mice were perfused with ice-cold PBS and sacrificed at different time points. The accumulation of epirubicin in the brain was measured using fluorometric excitation at 488 nm and emission at 590 nm. *P<0.05 (n=4, 2-tailed Student's t test). FIG. 12D are fluorescence microscopy images showing fluorescent microscopic analysis of epirubicin accumulation in the brains of mice treated with Lexiscan® or PSC833 (a functional P-gp inhibitor) compared with vehicle (control). 10 mg/kg of epirubicin was injected intravenously with or without 0.05 mg/kg of Lexiscan® or 50 mg/kg of PSC833 for 15 minutes. Mice were perfused with ice-cold PBS and sacrificed. Brain was sectioned for microscopic analysis for full-brain image, and focal zoomed image from cortex was laid as an inset. Epirubicin is in red, and nucleus was counterstained with DAPI (blue). FIG. 12E are graphs showing the quantified intensity of epirubicin from different regions of cortex (CTX), cerebellum (CRBL), and hippocampus (HPC) from brains of control, Lexiscan®-, or PSC833-injected animals and depicted as graphs. The scale bars indicate 100 μm in FIG. 12A; 50 μm in FIG. 12B, and 5 mm in FIG. 12D). ***P<0.001 (n=50, 2-tailed Student's t test).\nFIG. 14A is a western blot of P-gp and BCRP1 from mouse brain at 2 and 18 hours after NECA treatment. FIG. 14B are graphs showing the enumeration of the expression intensity of P-gp and BCRP1 from the western blots shown in FIG. 14A. The intensity of the bands from NECA treatment group was divided by that of DMSO control. […] For fluorescence microscopy, frozen brain sections were stained with GLUT1 (red) or P-gp (green) and counterstained with DAPI (blue). […] The accumulation of epirubicin in the brain was measured using fluorometry, with excitation at 488 nm and emission at 590 nm. *P<0.05 (n=4, 2-tailed Student's t test).\nFor Lexiscan® study, 10 mg/kg of epirubicin was injected with or without Lexiscan® (0.05 mg/kg) at different time points, and mice were sacrificed. […] Samples were spun down at 17,000 g for 30 minutes, and the concentration for epirubicin was analyzed with fluorimetry with […]."}, "[4]": {"system": "P-gp", "test": "Epirubicin accumulation and P-gp staining in MCF7 cells (fluorescence microscopy)", "assay_type": "cell-based, human", "conditions": "1 μM", "method": "MCF7 cells (human breast cancer cell line) were cultured in 24 well plates until they reached confluency. FIGS. 17A-17C are images of western blots of cells treated with vehicle control (i.e., DMSO) (“D”) or 1 μM of the broad spectrum AR agonist NECA (“N”) (FIG. 17A), 1 μM of the A2A AR agonist Lexiscan® (“L”) (FIG. 17B), or 1 μM of the A2B AR agonist BAY60 (“B”) (FIG. 17C), respectively for 24, 48, 72 hours. Cells were lysed with lysis buffer and expression levels of P-gp, MMP9, or VEGF analyzed by western blot. GAPDH was used as loading a control. FIG. 17D is a graph of experimental results showing that Lexiscan® down-regulates P-gp expression in MCF7 breast cancer cells. MCF7 breast cancer cells were treated with Lex (0.25 μM) concomitant with Rhodamine 123 (“Rho123”). […] Students T test, P<0.001. […] FIG. 17E is a fluorescence microscopy image showing MCF7 breast cancer cells grown on coverslips and treated with vehicle (DMSO, control), or A2 AR agonists, Lexiscan® (1 μM) or A1193 (1 μM) for 15 minutes in the presence of epirubicin. Cells were stained with an antibody to P-gp and mounted with DAPI. FIG. 17F is a graph of the fluorescent intensity quantified from FIG. 17E by measuring the mean fluorescent intensity (“MFI”) of epirubicin (pink) that is present in cell nuclei. ***=P<0.0001.\nTo further assess the modulation of A2A AR agonists on P-gp expression in MCF7 cells, applicants evaluated the accumulation of the P-gp substrate epirubicin in MCF7 cells. MCF7 cells were treated with DMSO (control), 1 μM Lexiscan®, or 1 μM of the A2A AR agonist A1193. […] In this case, the down-regulation of P-gp expression is equivalent to down-regulation of its function (Kim et al., “A2A Adenosine Receptor Modulates Drug Efflux Transporter P-Glycoprotein at the Blood-Brain Barrier,” J Clin Invest. 126(5):1717-33 (2016), which is hereby incorporated by reference in its entirety)."}, "[5]": {"system": "P-gp", "test": "P-gp expression in Caco-2 human tumor cell line (IFA MFI, western blot)", "assay_type": "cell-based", "conditions": "1 μM for 30 minutes (IFA), 1, 0.5, 0.1 μM (western blot)", "method": "FIG. 19A are fluorescence microscopy images of Caco-2 cells (originally isolated from a human primary colonic tumor) grown on coverslips and treated with Lexiscan® (1 μM) or A1193 (1 μM), or DMSO (vehicle) control for 30 minutes. Next, cells were fixed, permeabilized, and stained with an antibody to P-gp. After washing, cells were mounted with DAPI for nuclear staining. FIG. 19B is a graph of the MFI of P-gp. FIG. 19C is a graph of densitometric analysis of a western blot of Caco-2 cells treated with Lexiscan® in varying concentrations (1, 0.5, and 0.1 μM). Densitometric analysis was performed to quantify the amount of P-gp in western blot. Statistics: two tailed student's t test for FIG. 19B, *<0.5.\nApplicants also evaluated whether A2A AR agonists can modulate P-gp expression in a human tumor cell line, Caco-2 cells. Briefly, Caco-2 cells (originally isolated from a human tumor) were grown on coverslips and treated with Lexiscan®, A1193, or vehicle control for 30 minutes. Cells were then fixed, permeabilized, and stained with an antibody to P-gp. After washing, cells were mounted with DAPI for nuclear staining (FIG. 19A). The mean fluorescence intensity (MFI) of P-gp was quantified and graphed in FIG. 19B."}}, "note": "Entries after “also recorded” stand apart in the source; their conditions may differ.", "data": [{"smiles": "Nc1ncnc2c1ncn2[C@@H]1O[C@H](CO)[C@@H](O)[C@H]1O", "note": "[adenosine, 9-β-D-Ribofuranosyl-9H-purin-6-amine]", "values": [{"measurement": "half-life", "setting": "[1]", "value": "about 10 seconds"}]}, {"smiles": "Nc1nc2c(cnn2CCc2ccccc2)c2nc(-c3ccco3)nn12", "note": "[SCH58261, 2-(2-Furanyl)-7-(2-phenylethyl)-7H-pyrazolo[4,3-e][1,2,4]triazolo[1,5-c]pyrimidin-5-amine]", "values": [{"measurement": "P-gp expression (MFI)", "setting": "[2]", "value": "blocked the effects of Lexiscan®"}]}, {"smiles": "C/C=C/C[C@@H](C)C(=O)[C@H]1C(=O)N[C@@H](C(C)C)C(=O)N(C)CC(=O)N(C)[C@@H](CC(C)C)C(=O)N[C@@H](C(C)C)C(=O)N(C)[C@@H](CC(C)C)C(=O)N[C@@H](C)C(=O)N[C@H](C)C(=O)N(C)[C@@H](CC(C)C)C(=O)N(C)[C@@H](CC(C)C)C(=O)N(C)[C@@H](C(C)C)C(=O)N1C", "note": "[PSC833]", "values": [{"measurement": "Epirubicin fluorescent intensity in brain sections (cortex, cerebellum, hippocampus)", "setting": "[3]", "value": "Significantly lower epirubicin intensity; also recorded: lower epirubicin intensity than even the control treatment group"}]}, {"smiles": "CCNC(=O)[C@H]1O[C@@H](n2cnc3c(NCC(c4ccccc4)c4ccccc4)nc(C(=O)NCCNC(=O)NC4CCN(c5ccccn5)CC4)nc32)[C@H](O)[C@@H]1O", "note": "[A1193, 6-(2,2-diphenylethylamino)-9-((2R,3R,4S,5S)-5-(ethylcarbamoyl)-3,4-dihydroxytetrahydrofuran-2-yl)-N-(2-(3-(1-(pyridin-2-yl)piperidin-4-yl)ureido)ethyl)-9H-purine-2-carboxamide]", "values": [{"measurement": "P-gp expression (antibody staining)", "setting": "[4]; 15 minutes", "value": "down-regulate P-gp expression"}, {"measurement": "Epirubicin accumulation (MFI in cell nuclei)", "setting": "[4]; 15 minutes in the presence of epirubicin", "value": "retained significantly more epirubicin than those treated with control"}, {"measurement": "P-gp expression", "setting": "[5]", "value": "downregulate P-gp expression"}]}]}
